From patent US20190209501A1, “COMPOSITIONS AND METHODS OF USE OF BETA-HYDROXY-BETA-METHYLBUTYRATE (HMB) […] IN[…]” (Texas Tech University Office of Research Commercialization, priority 2018, published 2019)

Legend:
Assay type in all cases: in vivo, human
[1] = 1-repetition maximum and repetitions to failure, bench press and hip sled (leg press); settings: for 1RMBP (kg) Week 4 / 1RMBP (kg) Week 8: 1-repetition maximum bench press; for 1RMBP (kg) Week 4 / 1RMBP (kg) Week 8 / 1RMLP (kg) Week 8 / RTFBP (reps) Week 4 / RTFBP (reps) Week 8 / RTFLP (reps) Week 8: mean ± SE; for 1RMLP (kg) Week 8: 1-repetition maximum leg press; for 1RMBP Δ (%) / 1RMLP Δ (%) / RTFBP Δ (%) / RTFLP Δ (%): change baseline to week 8 relative to baseline; for RTFBP (reps) Week 4 / RTFBP (reps) Week 8: repetitions to failure bench press; for RTFBP (reps) Week 4 / RTFBP (reps) Week 8 / RTFLP (reps) Week 8: 70% of baseline 1-RM; for RTFLP (reps) Week 8: repetitions to failure leg press; for 1RMBP (kg) Δ / 1RMLP (kg) Δ / RTFBP (reps) Δ / RTFLP (reps) Δ: week 8 minus baseline
Description: Assessments of muscular performance took place between 12:00 and 18:00 in the non-fasted state, and participants were instructed to follow their preferred food and fluid intake patterns prior to testing. The assessment began with a 5-minute warm up period using a self-selected pace on a stationary bicycle. This warm up period was followed by assessment of countermovement vertical jumps (CMVJ) performance, testing on a mechanized squat device, and muscular strength and endurance assessment on the bench press and hip sled exercises. At the 4-week assessment, the CMVJ and hip sled assessments were not performed.
Resistance exercise performance for the bench press and hip sled exercises was evaluated via the 1-repetition maximum (1RM) and repetitions to failure with 70% of the 1RM. The 1RM testing protocol was based on the recommendations of the National Strength and Conditioning Association (33). Briefly, after completing warm up sets, participants completed 2 to 3 repetitions using a load estimated to be near-maximal. 1RM attempts then commenced, with the goal of obtaining the 1RM in between 3 and 5 attempts. Three minutes of rest were allowed between attempts. The maximal weight lifted with proper form was recorded as the 1RM. After the 1RM was obtained, a 3-minute rest period was allowed before repetitions to failure (RTF) were completed using 70% of the 1RM. For all participants, the bench press was tested before the leg press in order to allow for recovery of the lower body following the mechanized squat testing.

[2] = Countermovement vertical jump (jump height); settings: for Jump Height ES (d): Cohen's d baseline vs week 8; for Jump Height Δ (%): change baseline to week 8 relative to baseline; for Jump Height Δ: week 8 minus baseline
Description: For the CMVJ tests, participants completed eight trials while wearing their own footwear. Approximately 30 seconds rest separated each trial. Ground reaction force (GRF) data were obtained during the CMVJ using two force platforms sampled at 1 kHz (OPT464508; Advanced Mechanical Technology, Inc., Watertown, Mass. USA). Participants stood motionless with each foot positioned on a force platform and their hands on their hips before initiating the CMVJ with a countermovement action using a self-selected depth and jumping with maximum effort to achieve the highest vertical displacement possible. No instructions were provided for the landing phase except to land with each foot contacting its respective force platform from take-off and to stop downward motion and return to a motionless standing position. The raw GRF data from the two force platforms were smoothed using a fourth order low pass Butterworth digital filter with a 30 Hz cutoff frequency. The smoothed GRF from the two force platforms was then summed along the vertical axis to obtain the vertical GRF acting at the body center of mass. The start of the CMVJ was defined as the time when bodyweight was reduced by 2.5% (29). Take-off was defined as the time when the summed vertical GRF decreased below a 20 N threshold (30). Jump time was then calculated as the time elapsed between the start of the CMVJ and take-off, expressed in units of seconds. Vertical jump height was calculated using the impulse-momentum relationship and expressed in units of meters.

[3] = Urinary HMB concentrations; settings: for Urinary HMB concentration, Intervention: during intervention, 3 g/d calcium HMB
Description: At baseline and after 4 and 8 weeks of the intervention, participants completed two testing sessions: (1) a morning assessment conducted after an overnight fast for assessment of body composition, metabolism, vascular measures and subjective factors: and (2) an afternoon assessment of muscular performance, conducted in the non-fasted state. For morning assessments, participants reported to the laboratory after abstention from eating, drinking, exercising and utilizing caffeine or nicotine for ≥8 hours. Participants were interviewed to confirm adherence to these pre-assessment restrictions. The actual abstention from exercise was ≥14 hours due to the scheduling of exercise sessions. Participants reported to the laboratory wearing athletic clothing, and all metal and accessories were removed from the body prior to testing. Each participant voided her bladder and provided a urine sample. Urine samples were assessed for urine specific gravity (USG) using a digital refractometer (PA201X-093. Misco, Solon, Ohio. USA). Additionally, a standard urinary HCG test was performed to confirm that each participant was not pregnant. Finally, urinary samples were frozen at −80° C. for assessment of urinary HMB content after study unblinding. After voiding, each participant's body mass (BM) and height were determined via digital scale with stadiometer (Seca 769, Hamburg, Germany). Blood draws were performed at Texas Tech University Student Health Services after an overnight fast, and participants completed at-home saliva collections for assessment of the cortisol awakening response (CAR).

[4] = Percent body fat by underwater weighing, HMB without intermittent fasting (Panton et al.); settings: 3 g/d Calcium-HMB without intermittent fasting + RT
Protocol: In an earlier study described in Panton et al. (54) trained and untrained females (n=18, 27±2.1 y, 62.3±2.2 kg) were randomized to 3 g/d Calcium-HMB without intermitted fasting. The HMB only group completed 4 weeks of supervised resistance training and trained three times per week. Body composition was measured before and after the 4 weeks of training using underwater weighing procedures (55). Percent body fat (BF %) was estimated from the Siri equation^5.

[5] = ITT analysis, Cohen's d baseline vs week 8
[6] = PP analysis, Cohen's d baseline vs week 8

## CC(C)(O)CC(=O)O [TRFHMB, β-hydroxy-β-methylbutyrate]
[1]; ITT analysis
  1RMBP (kg) Week 4: 42.3 ± 2.4 kg
  1RMBP (kg) Week 8: 47.3 ± 2.5 kg
  1RMLP (kg) Week 8: 205.2 ± 15.0 kg
  1RMBP Δ (%): 21%
  1RMLP Δ (%): 57%
  RTFBP Δ (%): 68%
  RTFLP Δ (%): 145%
  RTFBP (reps) Week 4: 20.0 ± 1.6 reps
  RTFBP (reps) Week 8: 24.9 ± 1.8 reps
  RTFLP (reps) Week 8: 38.0 ± 5.4 reps
  1RMBP (kg) Δ: 8 kg
  1RMLP (kg) Δ: 75 kg
  RTFBP (reps) Δ: 10 reps
  RTFLP (reps) Δ: 23 reps
[1]; [5]
  1RMLP ES (d): 1.65
  RTFBP ES (d): 1.91
  RTFLP ES (d): 1.52
[1]; PP analysis only, vs 2.3 in CD
  Average ES for muscular endurance (RTFLP and RTFBP): 1.5
[1]; PP analysis
  1RMBP (kg) Week 4: 43 ± 4 kg
  1RMBP (kg) Week 8: 48 ± 4 kg
  1RMLP (kg) Week 8: 220 ± 19 kg
  1RMBP Δ (%): 20%
  1RMLP Δ (%): 51%
  RTFBP Δ (%): 79%
  RTFLP Δ (%): 94%
  RTFBP (reps) Week 4: 20 ± 2 reps
  RTFBP (reps) Week 8: 25 ± 3 reps
  RTFLP (reps) Week 8: 31 ± 6 reps
  1RMBP (kg) Δ: 8 kg
  1RMLP (kg) Δ: 74 kg
  RTFBP (reps) Δ: 11 reps
  RTFLP (reps) Δ: 15 reps
[1]; [6]
  1RMBP ES (d): 0.76
  1RMLP ES (d): 1.80
  RTFBP ES (d): 1.86
  RTFLP ES (d): 1.27
[2]; ITT analysis
  Jump Height ES (d): 0.65
  Jump Height Δ (%): 29%
  Jump Height Δ: 0.06
[2]; ITT analysis, week 8, mean ± SE, method b87 expresses jump height in meters
  Jump Height W 8: 0.27 ± 0.03
[2]; PP analysis
  Jump Height ES (d): 0.21
  Jump Height Δ (%): 9%
  Jump Height Δ: 0.02
[3]; ITT analysis
  Urinary HMB concentration, Intervention: 5033 ± 751 nmol/mL
[3]; PP analysis
  Urinary HMB concentration, Intervention: 6553 ± 1117 nmol/mL
[3]; both ITT and PP analyses
  Change in urinary HMB concentrations from pre-intervention to intervention: increased significantly
[4]
  BF % 4-week effect size (d): −0.15
